Laboratory results from publication PMC9846560, “Silver-promoted solid-phase guanidinylation enables the first synthesis of arginine glycosylated Samoamide A cyclopeptide analogue” (Frontiers in Chemistry, 2023).
≈ marks a conversion by molar mass, not a printed value. Where a SMILES comes first, the peptide text is derived from it.

Test: Solubility test (water solubility, saturated solution)
Type: physicochemical
Conditions: water (saturated aqueous solution), from solid: saturated aqueous solution at 25°C, sonicated approx. 10 min, centrifuged, supernatant diluted, UV absorbance at 214 nm against Samoamide A standard curve (C = 0.4646A - 0.0201)
Procedure: Samoamide A was precisely weighed, and 1 mg was placed in a 10 ml centrifuge tube and diluted to scale with 95% ethanol. Then, 0, 200, 400, 600, 800, 1,000 μl aliquots were pipetted in a 5 ml centrifuge tube and adjusted to 1 ml with 95% ethanol, and the aqueous solutions were measured on a scale, sonicated for 5 min, and placed at room temperature. An additional 1 ml of 95% ethanol was added, and water was added to the same method as the blank. The absorbance values were measured at 214 nm to obtain the linear regression equation of the standard curve.
Sufficient amounts of Samoamide A and its glycosylated derivatives were dissolved in aqueous solutions at a constant temperature of 25°C, sonicated for approximately 10 min, centrifuged and allowed to settle to remove the insoluble matter from the solution, and the upper layer of supernatant was taken, that is, the saturated solution. After the saturated solution was properly diluted, its absorbance value was measured at 214 nm, and the concentration of the saturated solution was calculated by substituting the above equation ([Chevalier et al., 2001]).

Row | SMILES | solubility thermodynamic [µg/mL]
1 | CC[C@H](C)[C@@H]1NC(=O)[C@@H]2CCCN2C(=O)[C@H](Cc2ccccc2)NC(=O)[C@H](C(C)C)NC(=O)[C@H](CC(C)C)NC(=O)[C@@H]2CCCN2C(=O)[C@@H]2CCCN2C(=O)[C@H](Cc2ccccc2)NC1=O [Samoamide A] (cyclo(LVFPIFPP)) | 730 (≈ 801 µM)

Test: head-to-tail lactamisation of linear octapeptide (N-terminal Leu or Arg onto C-terminal Val or Arg), PyBOP (3 eq)/HOBt (3 eq)/DIPEA (6 eq), 0 °C to rt, 14 h
Conditions: the molecule shown is the open-chain precursor; 24-membered ring; DCM; 12.0 h

Row | SMILES | ring closure, overall yield [%]
2 | CC[C@H](C)[C@H](NC(=O)[C@H](Cc1ccccc1)NC(=O)[C@@H]1CCCN1C(=O)[C@H](CCCNC(=N)N[C@@H]1O[C@H](COC(C)=O)[C@@H](OC(C)=O)[C@H](OC(C)=O)[C@H]1NC(C)=O)NC(=O)[C@@H](N)CC(C)C)C(=O)N1CCC[C@H]1C(=O)N[C@@H](Cc1ccccc1)C(=O)N[C@H](C(=O)O)C(C)C [H-Leu-Arg(N-GlcNAc(OAc)3)-Pro-Phe-Ile-Pro-Phe-Val-OH] | 20

Same assay, conditions: the molecule shown is the open-chain precursor; 24-membered ring; DCM; 14.0 h

Row | SMILES | ring closure, overall yield [%]
3 | CC[C@H](C)[C@H](NC(=O)[C@H](Cc1ccccc1)NC(=O)[C@@H]1CCCN1C(=O)[C@@H]1CCCN1C(=O)[C@@H](N)CCCNC(=N)NS(=O)(=O)c1c(C)c(C)c2c(c1C)CC(C)(C)O2)C(=O)N1CCC[C@H]1C(=O)N[C@@H](Cc1ccccc1)C(=O)N[C@H](C(=O)O)C(C)C [H-Arg(Pbf)-Pro-Pro-Phe-Ile-Pro-Phe-Val-OH] | 9
4 | CC[C@H](C)[C@H](NC(=O)[C@H](Cc1ccccc1)NC(=O)[C@@H]1CCCN1C(=O)[C@H](CCCNC(=N)NS(=O)(=O)c1c(C)c(C)c2c(c1C)CC(C)(C)O2)NC(=O)[C@@H](N)CC(C)C)C(=O)N1CCC[C@H]1C(=O)N[C@@H](Cc1ccccc1)C(=O)N[C@H](C(=O)O)C(C)C [H-Leu-Arg(Pbf)-Pro-Phe-Ile-Pro-Phe-Val-OH] | 10
5 | CC[C@H](C)[C@H](NC(=O)[C@H](Cc1ccccc1)NC(=O)[C@H](CCCNC(=N)NS(=O)(=O)c1c(C)c(C)c2c(c1C)CC(C)(C)O2)NC(=O)[C@@H]1CCCN1C(=O)[C@@H](N)CC(C)C)C(=O)N1CCC[C@H]1C(=O)N[C@@H](Cc1ccccc1)C(=O)N[C@H](C(=O)O)C(C)C [H-Leu-Pro-Arg(Pbf)-Phe-Ile-Pro-Phe-Val-OH] | 10
6 | CC[C@H](C)[C@H](NC(=O)[C@H](CCCNC(=N)NS(=O)(=O)c1c(C)c(C)c2c(c1C)CC(C)(C)O2)NC(=O)[C@@H]1CCCN1C(=O)[C@@H]1CCCN1C(=O)[C@@H](N)CC(C)C)C(=O)N1CCC[C@H]1C(=O)N[C@@H](Cc1ccccc1)C(=O)N[C@H](C(=O)O)C(C)C [H-Leu-Pro-Pro-Arg(Pbf)-Ile-Pro-Phe-Val-OH] | 8
7 | Cc1c(C)c(S(=O)(=O)NC(=N)NCCC[C@H](NC(=O)[C@H](Cc2ccccc2)NC(=O)[C@@H]2CCCN2C(=O)[C@@H]2CCCN2C(=O)[C@@H](N)CC(C)C)C(=O)N2CCC[C@H]2C(=O)N[C@@H](Cc2ccccc2)C(=O)N[C@H](C(=O)O)C(C)C)c(C)c2c1OC(C)(C)C2 [H-Leu-Pro-Pro-Phe-Arg(Pbf)-Pro-Phe-Val-OH] | 6
8 | CC[C@H](C)[C@H](NC(=O)[C@H](Cc1ccccc1)NC(=O)[C@@H]1CCCN1C(=O)[C@@H]1CCCN1C(=O)[C@@H](N)CC(C)C)C(=O)N[C@@H](CCCNC(=N)NS(=O)(=O)c1c(C)c(C)c2c(c1C)CC(C)(C)O2)C(=O)N[C@@H](Cc1ccccc1)C(=O)N[C@H](C(=O)O)C(C)C [H-Leu-Pro-Pro-Phe-Ile-Arg(Pbf)-Phe-Val-OH] | 5
9 | CC[C@H](C)[C@H](NC(=O)[C@H](Cc1ccccc1)NC(=O)[C@@H]1CCCN1C(=O)[C@@H]1CCCN1C(=O)[C@@H](N)CC(C)C)C(=O)N1CCC[C@H]1C(=O)N[C@@H](CCCNC(=N)NS(=O)(=O)c1c(C)c(C)c2c(c1C)CC(C)(C)O2)C(=O)N[C@H](C(=O)O)C(C)C [H-Leu-Pro-Pro-Phe-Ile-Pro-Arg(Pbf)-Val-OH] | 4
10 | CC[C@H](C)[C@H](NC(=O)[C@H](Cc1ccccc1)NC(=O)[C@@H]1CCCN1C(=O)[C@@H]1CCCN1C(=O)[C@@H](N)CC(C)C)C(=O)N1CCC[C@H]1C(=O)N[C@@H](Cc1ccccc1)C(=O)N[C@@H](CCCNC(=N)NS(=O)(=O)c1c(C)c(C)c2c(c1C)CC(C)(C)O2)C(=O)O [H-Leu-Pro-Pro-Phe-Ile-Pro-Phe-Arg(Pbf)-OH] | 6
11 | CC[C@H](C)[C@H](NC(=O)[C@H](Cc1ccccc1)NC(=O)[C@@H]1CCCN1C(=O)[C@@H]1CCCN1C(=O)[C@@H](N)CC(C)C)C(=O)N1CCC[C@H]1C(=O)N[C@@H](Cc1ccccc1)C(=O)N[C@H](C(=O)O)C(C)C [H-Leu-Pro-Pro-Phe-Ile-Pro-Phe-Val-OH] | 15
